According to patent US9205179B2, “Broad-spectrum antimicrobial compositions based on combinations of taurolidine and protamine and medical devices containing such compositions” (Ethicon, Inc., priority 2011, dated 2015):

Experiments:
[1] = test system: Staphylococcus aureus ACTT 6538; experiment: In vitro bacteria attachment assay on coated mesh discs in SST medium; type: cell-based; conditions: serum containing media; same TU dosage alone or combined with PS
Procedure: (§1) Taurolidine was dissolved at 4% wt./vol. in a 70% acetone 30% water vol./vol. mixture. Protamine sulfate was dissolved at 10% wt./vol. in water under warming. 50 μl of the taurolidine (TU) solution and 20 μl of the protamine (PS) solution were applied to each mesh disk using a pipette and allowed to dry at 50° C. until the majority of the liquid was gone and then stored under vacuum. First the taurolidine solution was applied, and then immediately thereafter the protamine sulfate solution was applied. The in vitro bacteria attachment assay was developed for its utility of indicating biofilm prevention potential of prototype mesh. Since bacterial attachment to a surface is the first step of biofilm formation, a surface treatment that inhibits bacterial attachment would reduce the chance of subsequent biofilm formation. The assay was conducted in SST (Serum Saline TSB) medium to mimic in vivo and clinical conditions. The formulation of SST is Tryptic Soy Broth (TSB):serum:saline in the ratio of 1:2:7. Each test article was incubated in SST inoculated with Staphylococcus aureus ACTT 6538 or Escherichia coli ATCC 25922 at about 6 Log CFU/ml. […] Viable bacteria populations were measured by plate count on TSA (Tryptic Soy agar) medium contain neutralizing agents. […]

[2] = test system: Escherichia coli ATCC 25922; experiment: as above; type: cell-based; conditions: serum containing media; same TU dosage alone or combined with PS
Procedure: as §1

[3] = cited from earlier work

For O=S1(=O)CCN(CN2CCS(=O)(=O)NC2)CN1 [TU, bis(1,1-dioxoperhydro-1,2,4-thiadiazinyl-4)-methane], the “Inhibition of attachment by S. aureus to treated mesh surface” value [1] is given as “less inhibition than the combination”, the “Inhibition of attachment by E. coli to treated mesh surface” value [2] is given as “less inhibition than the combination” and the “Cumulative dose shown to be safe and well tolerated” value ([3]; cumulative dose, up to and exceeding) is given as “exceeding 300 g”. The “Systemic dose shown to be safe and well tolerated” value ([3]; systemic dose) was “exceeding 40 g/day”.
